# Data: patent US20240216352A1 (priority 2022, published 2024)
# Tested on: healthy participants
# Test: Phase 1 Part B multiple ascending dose (MAD): blood pressure
# Format: in vivo, human
# Conditions: for Mean SBP: in mmHg (unit assumed)
# Method: The study was performed in 3 parts in 112 healthy male and female participants, including 24 Japanese participants. Female participants were to be not of childbearing potential. The present study was designed to evaluate the safety and tolerability, PK, and exploratory PD of an oral suspension of Compound A. Parts A and B (Cohort B1 only) enrolled healthy participants and was conducted at a site in The Netherlands and Part B (Cohort B2 to B5) enrolled healthy non-Japanese participants and was conducted at a site in the United Kingdom (UK). Part C enrolled healthy Japanese participants and was conducted at the same site in the UK.
# Part B was a MAD study in a planned number of 6 sequential dose escalation cohorts (10 mg QD, 30 mg QD, 30 mg BID, 60 mg BID, 125 mg BID, and ≤250 mg BID) of 8 healthy participants (6 active+2 placebo) each, under fasted conditions. However, Cohort B6 (≤250 mg BID) was cancelled because sufficient safety and PK data had been obtained at doses up to 125 mg BID. Eligible participants received study drug (Compound A or placebo) administered orally for 14 days.
# Physical examinations, vital sign measurements (including orthostasis testing in Cohort A6, Cohort B3 to B5, and C1 to C3 at selected time points), 12-lead electrocardiogram (ECG), and clinical laboratory evaluations were performed at selected times throughout the study. In addition, Holter monitoring was performed for the first 24 hours post dose on Day 1 in Part A (not in FE/pH cohort), and also for the first 24 hours post dose on Day 1 and Day 14 in Parts B and C. Participants were closely monitored for adverse events (AEs). Blood samples were collected for up to 14 days (follow-up visit) after (last) study drug administration for PK analysis. In addition, blood and urine were collected for exploratory biomarker assessments and for biobanking of samples for potential analyses. Urine was collected for potential PK analysis for up to 96 hours after a single dose of Compound A or placebo was administered in the SAD part, and for up to 24 hours after the first (morning) dose of study drug on Day 1 and for up to 24 hours after the last (morning) dose of study drug on Day 14 in the MAD parts.
structure (smiles),measurement,setting,value
"CCCN(C)C(=O)OCc1c(-c2ccc(O[C@H]3CCC[C@H](C(=O)O)C3)c(C)n2)nnn1C [Compound A, (1S,3S)-3-((2-methyl-6-(1-methyl-5-(((methyl(propyl)carbamoyl)-oxy)methyl)-1H-1,2,3-triazol-4-yl)pyridin-3-yl)oxy)cyclohexane-1-carboxylic acid]",Maximum of mean (±SD) reduction in DBP from baseline,MAD 10 mg QD (B1),6.8 ± 2.64 mmHg
same,Time of maximum mean DBP reduction,MAD 10 mg QD (B1),1-5 Day-h
same,Mean DBP,"MAD 10 mg QD, D 1 2 h",70.2 mmHg
same,Mean SBP,"MAD 10 mg QD, D 1 2 h",112.2
same,Mean DBP,"MAD 10 mg QD, D 1 4 h",65.8 mmHg
same,Mean SBP,"MAD 10 mg QD, D 1 4 h",109.5
same,Mean DBP,"MAD 10 mg QD, D 1 8 h",68.7 mmHg
same,Mean SBP,"MAD 10 mg QD, D 1 8 h",112.8
same,Mean DBP,"MAD 10 mg QD, D 2 24 h",65.3 mmHg
same,Mean SBP,"MAD 10 mg QD, D 2 24 h",108.5
same,Mean DBP,"MAD 10 mg QD, D 14 312 h",69.3 mmHg
same,Mean SBP,"MAD 10 mg QD, D 14 312 h",112.8
same,Mean DBP,"MAD 10 mg QD, D 14 314 h",67.5 mmHg
same,Mean SBP,"MAD 10 mg QD, D 14 314 h",113.5
same,Mean DBP,"MAD 10 mg QD, D 14 317 h",64.3 mmHg
same,Mean SBP,"MAD 10 mg QD, D 14 317 h",114.5
same,Mean DBP,"MAD 10 mg QD, D 14 320 h",67.5 mmHg
same,Mean SBP,"MAD 10 mg QD, D 14 320 h",111.2
same,Mean DBP,"MAD 10 mg QD, D 15 336 h",66.8 mmHg
same,Mean SBP,"MAD 10 mg QD, D 15 336 h",110.8
same,Maximum of mean (±SD) reduction in DBP from baseline,MAD 30 mg BID (B3),11.2 ± 4.58 mmHg
same,Maximum of mean (±SD) reduction in SBP from baseline,MAD 30 mg BID (B3),15.8 ± 10.19 mmHg
same,Time of maximum mean DBP reduction,MAD 30 mg BID (B3),1-5 Day-h
same,Time of maximum mean SBP reduction,MAD 30 mg BID (B3),1-5 Day-h
same,Mean DBP,"MAD 30 mg BID, D 1 2 h",63.3 mmHg
same,Mean SBP,"MAD 30 mg BID, D 1 2 h",106.5
same,Mean DBP,"MAD 30 mg BID, D 1 4 h",62.7 mmHg
same,Mean SBP,"MAD 30 mg BID, D 1 4 h",107.2
same,Mean DBP,"MAD 30 mg BID, D 1 8 h",63.2 mmHg
same,Mean SBP,"MAD 30 mg BID, D 1 8 h",106.3
same,Mean DBP,"MAD 30 mg BID, D 2 24 h",66.7 mmHg
same,Mean SBP,"MAD 30 mg BID, D 2 24 h",114.7
same,Mean DBP,"MAD 30 mg BID, D 14 312 h",68.7 mmHg
same,Mean SBP,"MAD 30 mg BID, D 14 312 h",119.7
same,Mean DBP,"MAD 30 mg BID, D 14 314 h",63.8 mmHg
same,Mean SBP,"MAD 30 mg BID, D 14 314 h",109.7
same,Mean DBP,"MAD 30 mg BID, D 14 317 h",61 mmHg
same,Mean SBP,"MAD 30 mg BID, D 14 317 h",114.3
same,Mean SBP,"MAD 30 mg BID, D 14 320 h",110.0
same,Mean DBP,"MAD 30 mg BID, D 15 336 h",65.3 mmHg
same,Mean SBP,"MAD 30 mg BID, D 15 336 h",116.3
same,Maximum of mean (±SD) reduction in DBP from baseline,MAD 30 mg QD (B2),8.8 ± 4.62 mmHg
same,Maximum of mean (±SD) reduction in SBP from baseline,MAD 30 mg QD (B2),10.7 ± 7.06 mmHg
same,Mean DBP,"MAD 30 mg QD, D 1 2 h",66.5 mmHg
same,Mean SBP,"MAD 30 mg QD, D 1 2 h",104.8
same,Mean DBP,"MAD 30 mg QD, D 1 4 h",67.8 mmHg
same,Mean SBP,"MAD 30 mg QD, D 1 4 h",102.3
same,Mean DBP,"MAD 30 mg QD, D 1 8 h",66 mmHg
same,Mean SBP,"MAD 30 mg QD, D 1 8 h",107.2
same,Mean DBP,"MAD 30 mg QD, D 2 24 h",67.3 mmHg
same,Mean SBP,"MAD 30 mg QD, D 2 24 h",114.3
same,Mean DBP,"MAD 30 mg QD, D 14 312 h",63.3 mmHg
same,Mean SBP,"MAD 30 mg QD, D 14 312 h",110.0
same,Mean DBP,"MAD 30 mg QD, D 14 314 h",63.5 mmHg
same,Mean SBP,"MAD 30 mg QD, D 14 314 h",101.7
same,Mean DBP,"MAD 30 mg QD, D 14 317 h",61.8 mmHg
same,Mean SBP,"MAD 30 mg QD, D 14 317 h",102.3
same,Mean DBP,"MAD 30 mg QD, D 14 320 h",63.2 mmHg
same,Mean SBP,"MAD 30 mg QD, D 14 320 h",101.5
same,Mean DBP,"MAD 30 mg QD, D 15 336 h",62.3 mmHg
same,Mean SBP,"MAD 30 mg QD, D 15 336 h",107.3
same,Maximum of mean (±SD) reduction in DBP from baseline,MAD 60 mg BID (B4),8.3 ± 6.89 mmHg
same,Maximum of mean (±SD) reduction in SBP from baseline,MAD 60 mg BID (B4),17.5 ± 11.31 mmHg
same,Time of maximum mean DBP reduction,MAD 60 mg BID (B4),3-4 Day-h
same,Mean DBP,"MAD 60 mg BID, D 1 2 h",64.5 mmHg
same,Mean SBP,"MAD 60 mg BID, D 1 2 h",110.2
same,Mean DBP,"MAD 60 mg BID, D 1 4 h",66 mmHg
same,Mean SBP,"MAD 60 mg BID, D 1 4 h",106.7
same,Mean DBP,"MAD 60 mg BID, D 1 8 h",64.7 mmHg
same,Mean SBP,"MAD 60 mg BID, D 1 8 h",109.3
same,Mean DBP,"MAD 60 mg BID, D 2 24 h",65.7 mmHg
same,Mean SBP,"MAD 60 mg BID, D 2 24 h",118.8
same,Mean DBP,"MAD 60 mg BID, D 14 312 h",64.8 mmHg
same,Mean SBP,"MAD 60 mg BID, D 14 312 h",111.8
same,Mean DBP,"MAD 60 mg BID, D 14 314 h",64 mmHg
same,Mean SBP,"MAD 60 mg BID, D 14 314 h",110.5
same,Mean DBP,"MAD 60 mg BID, D 14 317 h",62.5 mmHg
same,Mean SBP,"MAD 60 mg BID, D 14 317 h",114.8
same,Mean DBP,"MAD 60 mg BID, D 14 320 h",63 mmHg
same,Mean SBP,"MAD 60 mg BID, D 14 320 h",115.5
same,Mean DBP,"MAD 60 mg BID, D 15 336 h",64.5 mmHg
same,Mean SBP,"MAD 60 mg BID, D 15 336 h",114.5
same,Maximum of mean (±SD) reduction in DBP from baseline,MAD 125 mg BID (B5),14.7 ± 5.68 mmHg
same,Maximum of mean (±SD) reduction in SBP from baseline,MAD 125 mg BID (B5),14.5 ± 5.86 mmHg
same,Time of maximum mean DBP reduction,MAD 125 mg BID (B5),12-12 Day-h
same,Mean DBP,"MAD 125 mg BID, D 1 2 h",62.3 mmHg
same,Mean SBP,"MAD 125 mg BID, D 1 2 h",112.2
same,Mean DBP,"MAD 125 mg BID, D 1 4 h",64.7 mmHg
same,Mean SBP,"MAD 125 mg BID, D 1 4 h",112.2
same,Mean DBP,"MAD 125 mg BID, D 1 8 h",64.7 mmHg
same,Mean SBP,"MAD 125 mg BID, D 1 8 h",107.3
same,Mean DBP,"MAD 125 mg BID, D 2 24 h",66.3 mmHg
same,Mean SBP,"MAD 125 mg BID, D 2 24 h",118.8
same,Mean DBP,"MAD 125 mg BID, D 14 312 h",62 mmHg
same,Mean SBP,"MAD 125 mg BID, D 14 312 h",111.3
same,Mean DBP,"MAD 125 mg BID, D 14 314 h",65 mmHg
same,Mean SBP,"MAD 125 mg BID, D 14 314 h",116.0
same,Mean DBP,"MAD 125 mg BID, D 14 317 h",59.2 mmHg
same,Mean SBP,"MAD 125 mg BID, D 14 317 h",116.3
same,Mean DBP,"MAD 125 mg BID, D 14 320 h",61.8 mmHg
same,Mean SBP,"MAD 125 mg BID, D 14 320 h",114.5
same,Mean DBP,"MAD 125 mg BID, D 15 336 h",63 mmHg
same,Mean SBP,"MAD 125 mg BID, D 15 336 h",111.3
same,BP reductions versus placebo,MAD BID groups,no clear differences between placebo and the Compound A groups
same,Dose dependence of mean SBP and DBP reductions,MAD QD groups,reductions generally occurred in a Compound A dose-dependent manner
